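Each compound was tested at five concentrations against cells in 96-well plates for 48 hours. TGI: concentration producing complete growth inhibition.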
Key:
Assay in all cases: inhibition of tumour cell growth, NCI panel, 48 h
A549 NSCLC = tested on: A549 NSCLC
CCRF-CEM leukemia = tested on: CCRF-CEM leukemia
DU-145 prostate = tested on: DU-145 prostate
HL-60(TB) leukemia = tested on: HL-60(TB) leukemia
HS 578T breast = tested on: HS 578T breast
IGROV1 ovarian = tested on: IGROV1 ovarian
MDA-MB-231 breast = tested on: MDA-MB-231 breast
MOLT-4 leukemia = tested on: MOLT-4 leukemia
NCI-H460 lung = tested on: NCI-H460 lung
RXF 393 renal = tested on: RXF 393 renal

Cc1cnc2sn(-c3ccc(Br)cc3)c(=O)c2c1
TGI (A549 NSCLC): > 100 µM
TGI (CCRF-CEM leukemia): 69.7 µM
TGI (DU-145 prostate): > 100 µM
TGI (HL-60(TB) leukemia): 49.7 µM
TGI (HS 578T breast): 88.1 µM
TGI (IGROV1 ovarian): > 100 µM
TGI (MDA-MB-231 breast): > 100 µM
TGI (MOLT-4 leukemia): > 100 µM
TGI (NCI-H460 lung): > 100 µM

ON=C(CC(O)(C(F)(F)Cl)C(F)(F)Cl)CC(O)(C(F)(F)Cl)C(F)(F)Cl
TGI (A549 NSCLC): > 10 µM
TGI (CCRF-CEM leukemia): > 10 µM
TGI (DU-145 prostate): > 10 µM
TGI (HL-60(TB) leukemia): > 10 µM
TGI (HS 578T breast): > 10 µM
TGI (IGROV1 ovarian): > 10 µM
TGI (MOLT-4 leukemia): > 10 µM
TGI (NCI-H460 lung): > 10 µM
TGI (RXF 393 renal): 7.79 µM

CCOC(=O)c1nnc2c(C#N)c(-c3ccccc3)c(C)n2c1N
TGI (A549 NSCLC): > 100 µM
TGI (CCRF-CEM leukemia): > 100 µM
TGI (DU-145 prostate): > 100 µM
TGI (HS 578T breast): 85.7 µM
TGI (IGROV1 ovarian): 66.6 µM
TGI (MDA-MB-231 breast): > 100 µM
TGI (MOLT-4 leukemia): > 100 µM
TGI (NCI-H460 lung): > 100 µM
TGI (RXF 393 renal): > 100 µM

Fc1ccc(C(OCCN2CC3CCC(C2)N3CCCc2ccccc2)c2ccc(F)cc2)cc1
TGI (A549 NSCLC): 21.5 µM
TGI (CCRF-CEM leukemia): 15.6 µM
TGI (DU-145 prostate): 22.6 µM
TGI (HL-60(TB) leukemia): 14.1 µM
TGI (HS 578T breast): 13.6 µM
TGI (IGROV1 ovarian): 21.1 µM
TGI (MDA-MB-231 breast): 10.2 µM
TGI (MOLT-4 leukemia): 9.01 µM
TGI (NCI-H460 lung): 9.75 µM

Cc1cccc(N/C(Sc2ccccc2)=C(/C(Cl)=C(Cl)Cl)[N+](=O)[O-])c1
TGI (A549 NSCLC): 47.4 µM
TGI (CCRF-CEM leukemia): > 100 µM
TGI (DU-145 prostate): 62.2 µM
TGI (MDA-MB-231 breast): 53.9 µM
TGI (MOLT-4 leukemia): > 100 µM
TGI (NCI-H460 lung): > 100 µM

N#Cc1c(O)c(/C=N/c2ncccn2)c(=O)n2c1[nH]c1ccccc12
TGI (A549 NSCLC): > 100 µM
TGI (CCRF-CEM leukemia): > 100 µM
TGI (HL-60(TB) leukemia): > 100 µM
TGI (HS 578T breast): > 100 µM
TGI (IGROV1 ovarian): > 100 µM
TGI (MDA-MB-231 breast): > 100 µM
TGI (MOLT-4 leukemia): > 100 µM
TGI (NCI-H460 lung): > 100 µM
TGI (RXF 393 renal): > 100 µM

COc1ccccc1C1c2cc3c(cc2OC(N2CCOCC2)C1C)OCO3 (stereo not drawn)
TGI (A549 NSCLC): 47.3 µM
TGI (CCRF-CEM leukemia): 34.7 µM
TGI (DU-145 prostate): 51.4 µM
TGI (HS 578T breast): 39 µM
TGI (IGROV1 ovarian): 81.7 µM
TGI (MOLT-4 leukemia): 48.7 µM
TGI (NCI-H460 lung): 40.7 µM

CC(Oc1ccc(OCC2CCCCC2)cc1)C(=O)NCc1ccco1 (stereo not drawn)
TGI (A549 NSCLC): > 100 µM
TGI (CCRF-CEM leukemia): > 100 µM
TGI (HL-60(TB) leukemia): > 100 µM
TGI (IGROV1 ovarian): > 100 µM
TGI (MOLT-4 leukemia): > 100 µM
TGI (NCI-H460 lung): > 100 µM
TGI (RXF 393 renal): 71.4 µM

O=C1CC(NCc2ccccc2)c2c(Cl)sc(Cl)c21 (stereo not drawn)
TGI (A549 NSCLC): > 100 µM
TGI (CCRF-CEM leukemia): 9.44 µM
TGI (DU-145 prostate): > 66.5 µM
TGI (HL-60(TB) leukemia): 41.6 µM
TGI (HS 578T breast): > 82.5 µM
TGI (IGROV1 ovarian): > 64.6 µM
TGI (MDA-MB-231 breast): 66.4 µM
TGI (MOLT-4 leukemia): 43.2 µM
TGI (NCI-H460 lung): > 100 µM

NC(=O)NC12CC3CC(CC(F)(C3)C1)C2
TGI (A549 NSCLC): > 100 µM
TGI (CCRF-CEM leukemia): > 100 µM
TGI (HL-60(TB) leukemia): > 100 µM
TGI (IGROV1 ovarian): > 100 µM
TGI (MOLT-4 leukemia): > 100 µM
TGI (NCI-H460 lung): > 100 µM
TGI (RXF 393 renal): > 100 µM

Cc1ccc(N(C)S(=O)(=O)c2ccccc2[N+](=O)[O-])cc1
TGI (A549 NSCLC): > 100 µM
TGI (DU-145 prostate): > 100 µM
TGI (HL-60(TB) leukemia): > 100 µM
TGI (MDA-MB-231 breast): > 100 µM
TGI (NCI-H460 lung): > 100 µM
TGI (RXF 393 renal): > 100 µM

O=C(NNC(=O)c1csc(NC(=S)NC2CCCCC2)n1)c1ccccc1
TGI (A549 NSCLC): 54.1 µM
TGI (CCRF-CEM leukemia): 68.6 µM
TGI (DU-145 prostate): 51.3 µM
TGI (IGROV1 ovarian): 17.7 µM
TGI (MDA-MB-231 breast): 30.8 µM
TGI (MOLT-4 leukemia): 44.9 µM
